Measured values as given in patent US10322124B2, “6-hydroxy-2,5,7,8-tetramethylchroman-compounds for the treatment of chronic obstructive airway diseases” (Sulfateq B.V., priority 2014, dated 2019).
Entries after “also recorded” stand apart in the source; their conditions may differ. Where two headings read alike, the source gives them in different places.

Columns and labels:
[1] = test system: bovine trachea smooth muscle (BTSM) strips; assay: Bovine trachea smooth muscle (BTSM) strips, isometric tension measurements; settings: for relaxation of methacholine-pre-contracted BTSM strips: accumulative doses 1-300 μM, strips pre-contracted with methacholine (FIG. 3); for EC50: Bos taurus, relaxation of methacholine-pre-contracted BTSM strips, mean ± SEM, 3 determinations; for effect of the ß2-adrenoceptor antagonist propranolol on the relaxation of BTSM strips induced by the compound: 1 μM propranolol, 30 minutes prior (FIG. 4); for shift of the dose response curve for isoprenaline (isoprenaline-induced relaxation): BTSM strips pre-incubated with compound at 30 μM (FIG. 5); for contraction induced by methacholine: BTSM strips pre-incubated with compound at 30 μM, methacholine dose response curve (FIG. 6); for isometric tension of BTSM strips at 30 μM: concentration of 30 μM
Procedure: (§1) For cell-based studies, the SUL compounds were dissolved in 0.9% NaCl as 1 mM stock solutions. For the isometric tension measurements, the SUL compounds were dissolved in 100% DMSO as 100 mM stock solution.
Assay 3: Bovein Trachea Smooth Muscle (BTSM) Strips and Isometric Tension Measurements
Isometric tension measurements were performed as described previously (Roscioni et al., 2011: Roscioni, Prins et al., 2011). BTSM strips were mounted for isometric recording in organ-baths, containing Krebs-Henseleit (KH) buffer, containing in mM: […], 25 NaHCO3, 5.5 glucose, 5.6 KCl, 1.18 MgSO4, 2.50 CaCl2, 1.28 NaH2PO4, pre-gasses with 5% of CO2 and 95% O2, pH 7.4. After dissection of the smooth muscle layer and careful removal of connective tissue, BTSM strips of approximately 1 cm length and 2 mm width were prepared. Tissue strips were cultured in DMEM supplemented with non-essential amino acid mixture (1:100), sodium pyruvate (1 mM), gentamicin (45 μg*ml−1), penicillin (100 U*ml−1), streptomycin 100 μg*ml−1, amphotericin B (1.5 μg*ml−1) apo-transferrin (5 μg*ml−1) and ascorbic acid (100 μM). The BTSM strips were cultured for 1-3 days before isometric tension measurement in an Innova 4000 incubator shaker 37° C. 55 rpm).
For isometric tension measurements (Roscioni et al., 2011: Roscioni, Prins et al., 2011). BTSM strips were calibrated, were mounted into the transducers and submerged into the organ baths in pre-gassed KH buffer. Each strip was adjusted to a basal tension of 3 gram. Then, the strips were washed, equilibrated again for 60 minutes, followed by pre-contractions induced by 1×10-3.5 μM methacholine. To analyze acute effects of the SUL-compounds on the isometric tension, the strips were incubated with accumulative doses of the SUL-compounds (1-300 μM), followed by the addition of 0.01 μM isoprenaline.
To analyze potential role of the ß2-AR in the effects induced by the SUL-compounds, the strips were incubated with 1 μM propranonol for 30 minutes prior addition of the SUL-compounds. To analyze potential effects of the SUL-compounds on the isoprenaline-induced relaxation, the strips were first incubated with the SUL-compounds (30 μM each), followed by the addition of accumulative doses of isoprenaline (1×10.5-1 μM). Finally, to analyze potential effects of the SUL-compounds on the methacholine-induced contraction, the strips were first incubated with the SUL-compounds (30 μM each), followed by addition of accumulative doses of methacholine (0.001-30 μM), before the addition of 0.01 μM isoprenaline.
Data are shown are mean±standard error of the mean. One-way ANOVA followed by Bonferroni post hoc test, 2-tailed paired t-test, two-way ANOVA was used when appropriate to identify statistical difference between means. A statistical difference was defined as significant at p<0.05.

hTERT cells = assay: Trypan blue cell counting (cell viability); type: cell-based, human; settings: 24 hours, absence or presence of 15% CSE, trypan blue counting (FIG. 1)
Source text: (§2) In this example, the effects of […] H2S compounds, i.e. SUL90, SUL121 were studied on: • 1) The cell viability of human (immortalized) airway smooth muscle cells (hTERT cells), • 2) The release of the inflammation mediator IL-8 from hTERT cells, • 3) Airway smooth muscle contractility of bovine trachea smooth muscle strips. The samples used were: • Two SUL-compounds: SUL90, SUL121; • Human telomerase reverse transcriptase immortalized airway smooth muscles (hTERT) cells, cultured as previously described (Oldenburger et al., 2012). Prior to the experiments, cells were serum-deprived for 1 day, followed by cell treatment with the indicated concentrations of the SUL-compounds in the absence and presence of 15% cigarette smoke extract (CSE) for additional 24 hours. As controls, 1 μM fenoterol and 500 μM of the H2S donor NaHS were used. • 100% cigarette smoke extract (CSE), freshly made by combusting (Watson Marlow 323 E/D, Rotterdam, The Netherlands) the smoke of two research cigarettes (University of Kentucky 2R4F) through 25 mL of DMEM (FBS-free) at a speed of approximately 1 cigarette/5 minutes. Afterwards, CSE was diluted to 15% (Oldenburger et al., 2012).
as §1
Assay 1: Trypan Blue Cell Counting
For cell viability measurements, trypan blue cell counting was performed as previously described (Oldenburger et al., 2012). As control, 500 μM of the H2S donor NaHS was used. Alternatively, alamar blue measurements were performed to determine cell viability essentially as described before (Oldenburger et al., 2012).
Briefly, hTERT cells were plated on 24-well plates as a cell density of 10,000 cells/well. Again cells were serum-deprived for 1 day, followed by cell treatment with the indicated concentrations of the SUL-compounds in the absence and presence of 15% cigarette smoke extract (CSE) for additional 24 hours.

[2] = test system: IL-8 release from hTERT cells; assay: Release of interleukin-8 (IL-8) from hTERT cells exposed to CSE; type: cell-based, human; settings: 24 hours, 15% CSE, ELISA (FIG. 2)
Source text: as §2, §1
Assay 2: Release of interleukin-8 (IL-8) from hTERT Cells
This assay was used to determine the release of interleukin-8 from hTERT cells, fenoterol (1 μM) and the H2S donor (500 μM) served as controls. 24 hours after cell stimulation with the indicated concentrations of the SUL-compounds in the absence and presence of 15% CSW, culture medium was collected to measure the IL-8 concentration in the cell supernatants according to the manufacturer's instructions (PeliKine Compact ELISA kit, Sanquin, The Netherlands), as previously described (Oldenburger et al., 2012.

[3] = 1 μM propranolol pre-incubation, read-out: pD2, Propranolol (converted)
[4] = solvent treated, read-out: pD2, Solvent (converted)

With `CC(C)NCC(O)COc1cccc2ccccc12` (centres unmarked) [propranolol, reference compound] the “shift of the dose-response curve for isoprenaline by propranolol” value ([1]; BTSM strips pre-incubated with 1 μM propranolol (FIG. 4)) was “right-ward shift”.

In the case of `Cc1c(C)c2c(c(C)c1O)CCC(C)(C(=O)N1CCN(CC(=O)O)CC1)O2` (centres unmarked) [Sul-136, 2-(4-(6-hydroxy-2,5,7,8-tetramethylchroman-2-carbonyl)piperazin-1-yl)acetic acid], the “relaxation of methacholine-pre-contracted BTSM strips” value [1] is reported as “do not alter the contractile tone” and the “cell viability of hTERT cells” value (hTERT cells) is reported as “do not alter cell viability”.

With `CC(C)NCC(O)c1ccc(O)c(O)c1` (centres unmarked) [Isoprenaline, reference compound] the EC50 [1, 3] was 3.98 µM and the EC50 [1, 4] was 0.02 µM.

With `Cc1c(C)c2c(c(C)c1O)CCC(C)(C(=O)N1CCNCC1)O2` (centres unmarked) [Sul-121, (6-hydroxy-2,5,7,8-tetramethylchroman-2-yl)(piperazin-1-yl)methanone] the “effect of the ß2-adrenoceptor antagonist propranolol on the relaxation of BTSM strips induced by the compound” value (from here on “effect”) [1] was “not affected by propranolol; also recorded: does not alter the relaxation”, the “effect” value ([1]; listed as SUL121) was “ß2-adrenoceptor-independent” and the “shift of the dose response curve for isoprenaline (isoprenaline-induced relaxation)” value (“shift of the dose response curve” for short) [1] was “significant right-ward shift; also recorded: shifts the dose response curve or isoprenaline to the right”. The “shift of the dose response curve” value ([1]; listed as SUL212) was “right-ward shift”, the “contraction induced by methacholine” value [1] was “decrease the contraction” and the “contraction induced by methacholine” value ([1]; listed as SUL121) was “significantly reduce the contraction”. The “contraction induced by methacholine” value ([1]; listed as Sul121) was “reduced the contraction”, the EC50 [1, 3] was 316 µM and the EC50 [1, 4] was 316 µM. For the same compound, the “relaxation of methacholine-pre-contracted BTSM strips” value [1] was “even more pronounced relaxation, reaching statistical significance; also recorded: induce relaxation”, the “isometric tension of BTSM strips at 30 μM” value [1] was “leave the isometric tension unaffected” and the “CSE-induced IL-8 release from hTERT cells” value (shortened to “CSE-induced IL-8 release”) [2] was “significantly reduce the release; also recorded: inhibit CSE-induced IL-8 release”. For the same compound, the “CSE-induced IL-8 release” value ([2]; listed as SUL121) was “inhibit the cellular IL-8 release”, the “cell viability of hTERT cells” value (hTERT cells; listed as SUL121) was “do not severely alter cell viability” and the “cell viability of hTERT cells” value (hTERT cells; listed as SUL-121) was “seem not to severely alter the cell viability”.

With `Cc1c(C)c2c(c(C)c1O)CCC(C)(C(=O)NO)O2` (centres unmarked) [Sul-90, N,6-dihydroxy-2,5,7,8-tetramethylchroman-2-carboxamide] the “effect” value [1] was “trend to a left-ward shift; also recorded: does not alter the relaxation”, the “effect” value ([1]; listed as SUL90) was “ß2-adrenoceptor-independent” and the “effect” value ([1]; listed as Sul90) was “not affected by propranolol”. For the same compound, the “shift of the dose response curve” value [1] was “not”, the “contraction induced by methacholine” value [1] was “reduced the contraction; also recorded: decrease the contraction” and the “contraction induced by methacholine” value ([1]; listed as SUL90) was “significantly reduce the contraction”. For the same compound, the EC50 [1, 3] was 316 µM, the EC50 [1, 4] was 398 µM and the “relaxation of methacholine-pre-contracted BTSM strips” value [1] was “shows a trend to induce relaxation”. The “isometric tension of BTSM strips at 30 μM” value [1] was “leave the isometric tension unaffected”, the “concentrations at which a trend to relaxation of BTSM strips is shown” value ([1]; methacholine-pre-contracted BTSM strips (FIG. 3)) was “higher than 100 μM” and the “CSE-induced IL-8 release” value [2] was “significantly reduce the release; also recorded: inhibit CSE-induced IL-8 release”. For the same compound, the “CSE-induced IL-8 release” value ([2]; listed as SUL90) was “inhibit the cellular IL-8 release”, the “cell viability of hTERT cells” value (hTERT cells; listed as SUL90) was “do not severely alter cell viability” and the “cell viability of hTERT cells” value (hTERT cells; listed as SUL-90) was “seem not to severely alter the cell viability”.
